The text below walks through data of US5994363A (priority 1998, dated 1999).

Data set [1] is described as follows: Pharmacokinetic comparison of 4- and 8-mg sublingual tablets with 1 mg i.v. in healthy male volunteers (Example 4).
The conditions of data set [2]: cited from earlier work.
Data set [3] in a line: Plasma concentration or dose threshold for adverse effects.
Data set [4] can be described thus: Bioavailability by route of administration in dog (Example 3). The following applies: in vivo.
For data set [5] the following is noted: cited from earlier work. The source holds these as a separate data set.
The next data set is described as follows: clinical. The following applies: human, plasma.
The conditions of data set [6]: cited from earlier work. The source holds these as a separate data set.
The nature of data set [7]: Plasma concentration profile in dog at day 1, 90 and 180 (Example 2). The format is in vivo. To be noted: day 1, day 90 or day 180, 0.04, 0.1, 0.4 mg/kg.
Protocol: To assess whether the reduction in side effects could be attributable to changes in pharmacokinetic response, a plasma concentration profile study was conducted for each dosage group at day 1, day 90 and day 180.
Data set [8] can be described thus: Nerve stimulated clitoral and vaginal wall blood flow in females. The format is in vivo. To be noted: administration to females.
The nature of data set [9]: Apomorphine in human patients: erection and side effects (prior studies / general findings). The format is in vivo. To be noted: apomorphine dosage forms. The source says: The specific mechanisms by which apomorphine acts to produce an erectile response in a human patient are not yet completely understood, however.
The nature of data set [10]: Adverse events in escalating dose tolerance study in psychogenic male erectile dysfunction (Example 5). The format is in vivo, human. To be noted: in vivo. On the procedure:
Example 5-Summary. This clinical study was conducted in three phases. In Phase 1 subjects were selected from among patients complaining of impotence by a thorough physiological and psychological assessment. For example, one step in the assessment process required candidates to undergo Rigiscan measurement of penile rigidity and circumference following administration of a placebo tablet in single blind fashion. Phase 2 consisted of a dose escalation (4, 6, and 8 mg tablets) administered on 4 visits. An out-patient phase was conducted as Phase 3. Patients were given apomorphine HCL tablets to use at home.
Example-5 Detailed Description (Clinical Study #94-03-01). The human study was conducted in three separate phases. Phase 1 consisted of selecting appropriate subjects and obtaining baseline information on sexual performance for each subject.
They were tested on four separate days at four separate doses (placebo and three active medication doses) with an interval of no less than six days between visits (i.e., one visit per week).
If the trial was aborted, the patient was given the choice of having Gravol 50 mg p.o. (an anti-emetic) administered at that time or enduring the adverse events as they arose. In either event, the patient was monitored by the research clinician until all side-effects had subsided. The patient was asked to return the following week for the next scheduled dose.
During the five-week, home-use phase, subjects were to attempt coitus at least once each week after taking a single APO tablet. After each attempt, the subject and their partner completed a Sexual Function questionnaire (See FIGS. 15 and 16) which was later evaluated and used for final statistical analysis.
The data was analyzed by an inspection of the reported adverse events, the given dose of apomorphine and the phase of the study, i.e., in-patient (dose escalating) or take-home (constant dose) phases.

The term AUC denotes concentration integrated over time. A high value points to high exposure. By Cmax is commonly meant the highest concentration seen after dosing. For `CN1CCc2cccc3c2[C@H]1Cc1ccc(O)c(O)c1-3` [apomorphine, (R)-5,6,6a,7-Tetrahydro-6-methyl-4H-dibenzo-[de,g] quinoline-10,11-diol], the “MRT (mean residual time)” value in data set [1] (i.v. 1 mg) is given as 40.3 min. Further, the “Vd (volume of distribution @ β stage)” value in data set [1] (s.l. tablet 8 mg) was found to be 2.07 L/kg. Further, the “lethality of larger infusion dose” value in [2] (1,500 μg/kg/hr, 14 day study) is reported as “minimally lethal”. In addition, the “tolerated continuous infusion dose” value in data set [2] (continuous infusion, 14 days) was 420 µg/kg/h. For the same compound, in [3] (plasma concentration maintained at no more than), the “plasma concentration at which incidence of adverse side effects is minimal” value was “no more than 5.5 ng/ml”. The “threshold concentration (Cmax) for onset of adverse effects” value in data set [3] (plasma, human male subjects, nausea) was “about 2.5 nanograms/milliliter”. The “threshold dose for most impotence patients” value in data set [3] (sublingual tablet, week 1) amounted to 2 mg. The AUC was 5.45 ng·h/mL in [4] (0.2 mg/kg); 1.58 ng·h/mL in data set [4] (po, 0.2 mg/kg); 8.06 ng·h/mL in [4] (sc, 0.04 mg/kg); 0.527 ng·h/mL in the data set “clinical” (4 mg); 4.72 ng·h/mL in the data set “clinical” (8 mg); 3.45 ng·h/mL in “clinical” (iv, 1 mg). Also, in data set [5] (large doses, mammals such as humans, dogs), the “nausea and vomiting after large doses” value is “usually results in nausea and vomiting”. For the same compound, in data set [5] (subcutaneous, recognized use as an emetic), the emetic dose was about 5 milligram. The Cmax in the data set “clinical” (4 mg) turned out to be 0.83 ng/mL; in the data set “clinical” (iv, 1 mg) it was 8.3 ng/mL. In addition, in data set [6] (erectile responses in human males), the “side effects / therapeutic usefulness (Segraves)” value is “too many side effects to have therapeutic usefulness”. For the same compound, the “erection in psychogenic male patients” value in data set [6] (psychogenic impotence) is given as “can indeed induce an erection in a psychogenic patient”. The “side effects at dose required for significant erectile response” value in data set [6] (psychogenic impotence) is “usually accompanied by nausea or other serious undesirable side effects, including hypertension, flushing and diaphoresis (sweating)”. Moreover, in data set [7], the “AUC, distribution, or elimination over repeated dosing” value was “No evidence of significant changes”. Also, the “nerve stimulated clitoral intracavernosal and vaginal wall blood flow” value in [8] was “increases nerve stimulated clitoral intracavernosal blood flow and vaginal wall blood flow”. The “effectiveness in Parkinson's disease and psychogenic erectile dysfunction” value in data set [9] was “effective”. The “blood or urinalysis values” in data set [10] is on record as “no clinically significant changes”.
